Assay results: PMC6471485, “Selective Inhibitors of a Human Prolyl Hydroxylase (OGFOD1) Involved in Ribosomal Decoding” (Chemistry (Weinheim an Der Bergstrasse, Germany), 2019)

Target: T1, OGFOD1 (Homo sapiens, UniProt Q8N543)
T1 sequence (Q8N543 1-542): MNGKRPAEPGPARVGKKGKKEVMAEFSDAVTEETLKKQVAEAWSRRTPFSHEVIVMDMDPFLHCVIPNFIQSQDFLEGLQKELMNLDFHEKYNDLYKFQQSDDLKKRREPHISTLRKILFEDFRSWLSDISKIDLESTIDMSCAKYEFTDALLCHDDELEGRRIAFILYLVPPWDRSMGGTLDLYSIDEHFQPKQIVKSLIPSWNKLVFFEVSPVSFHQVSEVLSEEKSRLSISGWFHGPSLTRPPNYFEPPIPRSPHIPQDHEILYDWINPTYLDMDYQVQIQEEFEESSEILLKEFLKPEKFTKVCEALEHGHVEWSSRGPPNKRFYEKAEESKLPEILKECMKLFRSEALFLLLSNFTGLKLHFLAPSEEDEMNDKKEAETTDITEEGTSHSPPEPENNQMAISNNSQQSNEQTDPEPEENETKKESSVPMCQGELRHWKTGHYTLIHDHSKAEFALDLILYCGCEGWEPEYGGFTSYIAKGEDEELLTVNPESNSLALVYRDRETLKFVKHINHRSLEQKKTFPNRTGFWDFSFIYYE
Test: wLOGSY NMR binding experiment with OGFOD1
Conditions: 120 µM inhibitor, 15 µM OGFOD1
Protocol: total echo time of 40 ms, a relaxation delay of 2 s, with 256 scans. Water suppression was achieved by presaturation. Samples contained 30 µM apo-PHD2181-426 or OGFOD1, supplemented with 60 µM Zn(II), 30 µM of inhibitor, all in 50 mM Tris-d11, pH 7.5, 10 % D2O, […]
wLOGSY Binding Experiments: For water-ligand observed gradient spectroscopy (wLOGSY) analyses, typical experimental parameters were the following: mixing time, 1 s; relaxation delay, 2 s; number of transients, 512. Solvent excitation was achieved using a 16-ms 180° selective rectangular shape pulse with 1,000 points (Squa100.1000) set at the H2O frequency.
Water suppression was achieved by a 2-ms sinc pulse (Sinc1.1000) at the H2O frequency.
Samples contained 5-fold molar excess inhibitor:protein as detailed in the figure legends; all analyses were in 50 mM Tris-d11, pH 7.5, 10 % D2O, 90 % H2O supplemented with 60 µM […]
Competition Experiments by 2OG Displacement: 2OG displacement assays[12] were performed using CPMG-edited 1H spectra. The PROJECT-CPMG sequence was applied as described by Aguilar et al.[11] The standard experimental parameters used were a total echo time of 40 ms, a relaxation delay of 2 s, with 160 scans. Water suppression was achieved by presaturation. The 2OG methylene resonance at 2.35 ppm was monitored. The percentage 2OG displacement was […]
% 2OG displacement = !2OG%!2OG(0) ×100 […]

SMILES	binding to OGFOD1 by wLOGSY NMR, in words
Cn1c(O)c(C(=O)CCc2ccccc2)c(=O)n(C)c1=O [compound 26]	indicates a binding interaction
Cn1c(O)c(C(=O)CCc2cccs2)c(=O)n(C)c1=O [compound 42]	indicates a binding interaction
